{"source": "paper PMC10205683", "about": "“Structure Based Discovery of Inhibitors of CYP125 and CYP142 from Mycobacterium tuberculosis” (Chemistry (Weinheim an Der Bergstrasse, Germany), 2023)", "key": {"CYP125": {"biological_target": "T1, CYP125 (Mycobacterium tuberculosis, UniProt P9WPP1)", "T1 construct": "encoding residues 18-433; twin-strep hexahistidine tag (TEV-cleavable) (N, cleaved yes); made in house; host or cells: E. coli C41(DE3), pET21a", "T1 sequence (P9WPP1 18-433 limits assumed)": "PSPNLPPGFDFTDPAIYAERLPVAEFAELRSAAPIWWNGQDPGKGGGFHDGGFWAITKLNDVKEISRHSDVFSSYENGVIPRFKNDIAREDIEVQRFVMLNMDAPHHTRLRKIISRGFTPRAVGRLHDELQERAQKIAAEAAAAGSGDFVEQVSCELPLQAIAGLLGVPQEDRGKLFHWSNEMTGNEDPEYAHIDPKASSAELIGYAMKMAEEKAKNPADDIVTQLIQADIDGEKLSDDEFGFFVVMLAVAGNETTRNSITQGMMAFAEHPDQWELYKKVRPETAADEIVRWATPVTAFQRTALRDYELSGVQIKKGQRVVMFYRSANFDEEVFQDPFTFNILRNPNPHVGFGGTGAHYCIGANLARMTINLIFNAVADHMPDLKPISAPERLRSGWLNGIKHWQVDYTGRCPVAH", "experiment": "biochemical", "format": "binding", "settings": "UV-Vis spectroscopy"}, "CYP142": {"biological_target": "T2, CYP142 (Mycobacterium tuberculosis, UniProt P9WPL5)", "T2 sequence (P9WPL5 2-398)": "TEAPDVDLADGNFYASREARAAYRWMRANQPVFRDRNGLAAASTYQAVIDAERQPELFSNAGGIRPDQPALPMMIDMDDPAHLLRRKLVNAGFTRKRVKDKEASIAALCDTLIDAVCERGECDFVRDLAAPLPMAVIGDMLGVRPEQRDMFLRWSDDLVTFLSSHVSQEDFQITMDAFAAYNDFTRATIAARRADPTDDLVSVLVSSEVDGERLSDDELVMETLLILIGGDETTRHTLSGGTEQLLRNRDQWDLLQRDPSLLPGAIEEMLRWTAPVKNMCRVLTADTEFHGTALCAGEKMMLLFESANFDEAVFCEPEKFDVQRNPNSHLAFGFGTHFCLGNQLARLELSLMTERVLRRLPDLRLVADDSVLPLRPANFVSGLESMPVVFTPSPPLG", "experiment": "biochemical", "settings": "UV-Vis spectroscopy"}}, "data": [{"smiles": "NCc1ccc(-c2cnns2)cc1", "note": "[Compound 1]", "values": [{"measurement": "Kd", "setting": "CYP125", "value": 57700, "unit": "nM"}, {"measurement": "Kd", "setting": "CYP142", "value": 610, "unit": "nM"}]}, {"smiles": "COc1ccc(-c2ccncc2)cc1", "note": "[Compound 2]", "values": [{"measurement": "Kd", "setting": "CYP125", "value": "58500 ± 3800", "unit": "nM"}, {"measurement": "Kd", "setting": "CYP142", "value": "1600 ± 100", "unit": "nM"}]}, {"smiles": "COC(=O)c1cccc(-c2ccncc2)c1", "note": "[Compound 3]", "values": [{"measurement": "Kd", "setting": "CYP125", "value": 146000, "unit": "nM"}, {"measurement": "Kd", "setting": "CYP142", "value": 1500, "unit": "nM"}]}, {"smiles": "CCOC(=O)c1cc2cc(-c3ccncc3)ccc2[nH]1", "note": "[Compound 4, ethyl 5‐(pyridin‐4‐yl)‐1H‐indole‐2‐carboxylate]", "values": [{"measurement": "Kd", "setting": "CYP125", "value": 3000, "unit": "nM"}, {"measurement": "Kd", "setting": "CYP142", "value": 750, "unit": "nM"}]}, {"smiles": "CCOC(=O)c1cc2cc(-c3ccncc3)ccc2n1Cc1ccccc1", "note": "[Compound 5]", "values": [{"measurement": "Kd", "setting": "CYP125", "value": "650 ± 60", "unit": "nM"}, {"measurement": "Kd", "setting": "CYP142", "value": "40 ± 10", "unit": "nM"}]}, {"smiles": "CCOC(=O)c1cc2cc(-c3ccncc3)ccc2n1C(=O)c1ccccc1", "note": "[Compound 6]", "values": [{"measurement": "Kd", "setting": "CYP125", "value": "120 ± 40", "unit": "nM"}, {"measurement": "Kd", "setting": "CYP142", "value": "420 ± 80", "unit": "nM"}]}, {"smiles": "CCOC(=O)c1cc2cc(-c3ccncc3)ccc2n1CC1CCCCC1", "note": "[Compound 7]", "values": [{"measurement": "Kd", "setting": "CYP125", "value": "310 ± 30", "unit": "nM"}, {"measurement": "Kd", "setting": "CYP142", "value": "50 ± 10", "unit": "nM"}]}, {"smiles": "CCOC(=O)c1cc2cc(-c3ccncc3)ccc2n1CC1CCCC1", "note": "[Compound 8]", "values": [{"measurement": "Kd", "setting": "CYP125", "value": "300 ± 60", "unit": "nM"}, {"measurement": "Kd", "setting": "CYP142", "value": "60 ± 10", "unit": "nM"}]}, {"smiles": "CCOC(=O)c1cc2cc(-c3ccncc3)ccc2n1CC1CCC1", "note": "[Compound 9]", "values": [{"measurement": "Kd", "setting": "CYP125", "value": "1100 ± 200", "unit": "nM"}, {"measurement": "Kd", "setting": "CYP142", "value": "90 ± 10", "unit": "nM"}]}, {"smiles": "CCOC(=O)c1cc2cc(-c3ccncc3)ccc2n1CCC1CCNCC1", "note": "[Compound 10]", "values": [{"measurement": "Kd", "setting": "CYP125", "value": "5000 ± 200", "unit": "nM"}, {"measurement": "Kd", "setting": "CYP142", "value": "390 ± 60", "unit": "nM"}]}]}
